Measured values from ChEMBL document CHEMBL1201862, “PubChem BioAssay data set” (2004).
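Exposure lasted 48 hours, with cells grown in 96-well plates and compounds tested at five concentrations. Here, GI50 denotes the concentration required for 50% inhibition of growth.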 Activity calls are given as the source filed them. No stated cut-off is given here; in the data, active = GI50 up to about 1.1 µM and inactive = higher.

Legend:
Test in all cases: DTP human tumour cell line panel, 48 h
[1] = test system: SK-MEL-28
[2] = test system: HOP-62
[3] = test system: NCI/ADR-RES
[4] = test system: A549
[5] = test system: CCRF-CEM
[6] = test system: COLO 205
[7] = test system: MDA-N
[8] = test system: UACC-257
[9] = test system: MOLT-4
[10] = test system: OVCAR-3
[11] = test system: OVCAR-8
[12] = test system: SK-OV-3
[13] = test system: NCI-H226
[14] = test system: SK-MEL-2
[15] = test system: SNB-19
[16] = test system: HT-29
[17] = test system: OVCAR-4
[18] = test system: SW-620
[19] = test system: U-251
[20] = test system: MCF7
[21] = test system: ACHN
[22] = test system: NCI-H23
[23] = test system: MDA-MB-231
[24] = test system: HCC 2998
[25] = test system: T47D
[26] = test system: HCT-116
[27] = test system: NCI-H460
[28] = test system: PC-3
[29] = test system: SF-295
[30] = test system: M14
[31] = test system: DU-145
[32] = test system: K562
[33] = test system: CAKI-1
[34] = test system: SNB-75
[35] = test system: Hs-578T
[36] = test system: HL-60
[37] = test system: MDA-MB-435
[38] = test system: OVCAR-5
[39] = test system: UO-31
[40] = test system: NCI-H522
[41] = test system: RPMI-8226
[42] = test system: SK-MEL-5
[43] = test system: TK-10
[44] = test system: IGROV-1
[45] = test system: LOX IMVI
[46] = test system: HOP-92
[47] = test system: SN12C
[48] = test system: HCT-15
[49] = test system: SR
[50] = test system: 786-0
[51] = test system: UACC-62
[52] = test system: Malme-3M
[53] = test system: A498
[54] = test system: SF-539
[55] = test system: RXF 393
[56] = test system: EKVX
[57] = test system: KM12
[58] = test system: SF-268

SMILES: CSCCC(NC(=O)OCc1ccccc1)P(=O)(O)c1ccccc1 (stereo unspecified)
- GI50 [1]: > 100 µM (inactive)
- GI50 [2]: > 100 µM (inactive)
- GI50 [3]: > 100 µM (inactive)
- GI50 [4]: > 100 µM (inactive)
- GI50 [5]: > 100 µM (inactive)
- GI50 [6]: > 100 µM (inactive)
- GI50 [7]: > 100 µM (inactive)
- GI50 [8]: > 100 µM (inactive)
- GI50 [9]: > 100 µM (inactive)
- GI50 [10]: > 100 µM (inactive)
- GI50 [11]: > 100 µM (inactive)
- GI50 [12]: > 100 µM (inactive)
- GI50 [13]: > 100 µM (inactive)
- GI50 [14]: > 100 µM (inactive)
- GI50 [15]: > 100 µM (inactive)
- GI50 [16]: > 100 µM (inactive)
- GI50 [17]: > 100 µM (inactive)
- GI50 [18]: > 100 µM (inactive)
- GI50 [19]: > 100 µM (inactive)
- GI50 [20]: > 100 µM (inactive)
- GI50 [21]: > 100 µM (inactive)
- GI50 [22]: > 100 µM (inactive)
- GI50 [23]: > 100 µM (inactive)
- GI50 [24]: > 100 µM (inactive)
- GI50 [25]: > 100 µM (inactive)
- GI50 [26]: > 100 µM (inactive)
- GI50 [27]: > 100 µM (inactive)
- GI50 [28]: > 100 µM (inactive)
- GI50 [29]: > 100 µM (inactive)
- GI50 [30]: > 100 µM (inactive)
- GI50 [31]: > 100 µM (inactive)
- GI50 [32]: > 100 µM (inactive)
- GI50 [33]: > 100 µM (inactive)
- GI50 [34]: > 100 µM (inactive)
- GI50 [35]: > 100 µM (inactive)
- GI50 [36]: > 100 µM (inactive)
- GI50 [37]: > 100 µM (inactive)
- GI50 [38]: > 100 µM (inactive)
- GI50 [39]: > 100 µM (inactive)
- GI50 [40]: > 100 µM (inactive)
- GI50 [41]: > 100 µM (inactive)
- GI50 [42]: > 100 µM (inactive)
- GI50 [43]: > 100 µM (inactive)
- GI50 [44]: > 100 µM (inactive)
- GI50 [45]: > 100 µM (inactive)
- GI50 [46]: > 100 µM (inactive)
- GI50 [47]: > 100 µM (inactive)
- GI50 [48]: > 100 µM
- GI50 [49]: > 100 µM (inactive)

SMILES: CN1C/C(=C\c2ccc(Cl)cc2)C(=O)/C(=C/c2ccc(Cl)cc2)C1
- GI50 [1]: 3.78 µM (inactive)
- GI50 [2]: 2.68 µM (inactive)
- GI50 [3]: 1.37 µM (inactive)
- GI50 [4]: 2.2 µM (inactive)
- GI50 [5]: 0.323 µM (active)
- GI50 [6]: 0.979 µM (active)
- GI50 [7]: 0.861 µM (active)
- GI50 [8]: 0.443 µM (active)
- GI50 [50]: 0.354 µM (active)
- GI50 [9]: 0.326 µM (active)
- GI50 [51]: 2.22 µM (inactive)
- GI50 [52]: 14.3 µM (inactive)
- GI50 [10]: 1.63 µM (inactive)
- GI50 [11]: 0.232 µM (active)
- GI50 [13]: 4.45 µM (inactive)
- GI50 [14]: > 88.9 µM (inactive)
- GI50 [15]: 1.25 µM (inactive)
- GI50 [16]: 0.294 µM (active)
- GI50 [17]: 1.11 µM (active)
- GI50 [18]: 0.386 µM (active)
- GI50 [19]: 0.454 µM (active)
- GI50 [20]: 0.453 µM (active)
- GI50 [21]: 3.15 µM (inactive)
- GI50 [53]: 1.55 µM (inactive)
- GI50 [54]: 0.512 µM (active)
- GI50 [22]: 2.44 µM (inactive)
- GI50 [23]: 1.12 µM (active)
- GI50 [24]: 2.33 µM (inactive)
- GI50 [25]: 4.48 µM (inactive)
- GI50 [26]: 0.208 µM (active)
- GI50 [27]: 1.17 µM (inactive)
- GI50 [28]: 1.77 µM (inactive)
- GI50 [55]: 0.834 µM (active)
- GI50 [29]: 0.667 µM (active)
- GI50 [30]: 1.73 µM (inactive)
- GI50 [31]: 2.54 µM (inactive)
- GI50 [32]: 0.33 µM (active)
- GI50 [33]: 1.3 µM (inactive)
- GI50 [34]: 0.635 µM (active)
- GI50 [35]: 2.65 µM (inactive)
- GI50 [36]: 0.676 µM (active)
- GI50 [37]: 1.72 µM (inactive)
- GI50 [38]: 3.34 µM (inactive)
- GI50 [56]: 15.6 µM (inactive)
- GI50 [39]: 1.77 µM (inactive)
- GI50 [40]: 1.97 µM (inactive)
- GI50 [41]: 0.193 µM (active)
- GI50 [42]: 2.69 µM (inactive)
- GI50 [43]: 8.75 µM (inactive)
- GI50 [57]: 0.774 µM (active)
- GI50 [44]: 1.4 µM (inactive)
- GI50 [45]: 0.237 µM (active)
- GI50 [46]: > 26.9 µM (inactive)
- GI50 [58]: 1.63 µM (inactive)
- GI50 [47]: 0.771 µM (active)
- GI50 [48]: 0.731 µM
- GI50 [49]: 0.323 µM (active)
